The results in this text go back to article PMC6792352, “Limited Chemical Structural Diversity Found to Modulate Thyroid Hormone Receptor in the Tox21 Chemical Library” (Environmental Health Perspectives, 2019).

This data set in a line: in vitro. The following applies: rat, gh3-tre-luc cells.

Structures are written as SMILES. Structures can show the parent of a compound that is named as a salt.

The CC50 is the concentration giving 50% cytotoxicity. Consider `CCN(CC)c1nc(C)cc(OP(=S)(OC)OC)n1` [Pirimiphos-methyl], for which, for the setting “AC50 (uM) modified / 1000, Tox21_110001=Tox21_300718, viability, 1 nM T3 present, 24 h”, the CC50 at 24 h was > 90 µM.

As for `N#CCCN(CCO)CCO` [3-[Bis(2-hydroxyethyl)amino]propanenitrile], the CC50 at 24 h (AC50 (uM) modified / 1000) is > 90 µM.

Turning to `CCC[N+]1(C)CCCC1` [1-Methyl-1-propylpyrrolidinium bromide], the CC50 at 24 h (AC50 (uM) modified / 1000) is > 90 µM.

Regarding `CC(C)(C)C(=O)CCc1ccc(Cl)cc1` [1-(4-Chlorophenyl)-4,4-dimethyl-pentan-3-one], the CC50 at 24 h (AC50 (uM) modified / 1000) is > 90 µM.

For the molecule `Oc1ccc2c3c1O[C@H]1[C@@H](O)C=C[C@H]4[C@@H](C2)NCC[C@@]341` [Normorphine], the CC50 at 24 h (AC50 (uM) modified / 1000, Tox21_110001=Tox21_113540, viability, 1 nM T3 present, 24 h) was > 50 µM.

With `CCN(CC)CCOc1ccccc1OC` [Guaiactamine], the CC50 at 24 h (AC50 (uM) modified / 1000) is > 50 µM.

`Cc1cc2c(cc1S(N)(=O)=O)S(=O)(=O)CCC2` [Meticrane]: where the note is “AC50 (uM) modified / 1000”, the CC50 at 24 h is > 20 µM.

For `CC(CO)CO` [2-Methylpropane-1,3-diol], the half-maximal cytotoxic concentration (CC50) at 24 h (AC50 (uM) modified / 1000) is > 100 µM.

With `CCC(=O)Oc1ccc(/C(CC)=C(\CC)c2ccc(OC(=O)CC)cc2)cc1` [Diethylstilbestrol dipropionate], where the note is “AC50 (uM) modified / 1000”, the CC50 at 24 h is > 90 µM.

In the case of `Cc1c(-c2ccccc2)oc2c(C(=O)OCCN3CCCCC3)cccc2c1=O` [Flavoxate hydrochloride], the half-maximal cytotoxic concentration (CC50) at 24 h (AC50 (uM) modified / 1000) is > 20 µM.

`CC(=O)Nc1ccc(OCC(O)CNC(C)C)cc1` (stereo not drawn) [Practolol]: for the setting “AC50 (uM) modified / 1000”, the CC50 at 24 h is > 50 µM.

`NNc1ccccc1` [Phenylhydrazine hydrochloride]: the CC50 at 24 h is > 50 µM (AC50 (uM) modified / 1000, Tox21_110001=Tox21_111618, viability, 1 nM T3 present, 24 h); 40.6 µM (AC50 (uM) modified / 1000, Tox21_110001=Tox21_202198, viability, 1 nM T3 present, 24 h); 66.7 µM (AC50 (uM) modified / 1000, Tox21_110001=Tox21_302936, viability, 1 nM T3 present, 24 h).

Turning to `Cc1nc([N+](=O)[O-])cn1-c1ccc([N+](=O)[O-])cc1` [Nitrefazole], the CC50 at 24 h (AC50 (uM) modified / 1000) is > 50 µM.

For the molecule `CC(=O)Oc1cc2c(s1)CCN(C(C(=O)C1CC1)c1ccccc1F)C2` (stereo not drawn) [Prasugrel hydrochloride], where the note is “AC50 (uM) modified / 1000”, the CC50 at 24 h is > 50 µM.

Where the note is “AC50 (uM) modified / 1000”, `O=C(OCC1CO1)C1CCCCC1C(=O)OCC1CO1` (stereo not drawn) [1,2-Cyclohexanedicarboxylic acid, bis(oxiranylmethyl) ester] registered a CC50 at 24 h of 44.7 µM.

For `CC1(C)CO[C@@H](CC(=O)O)CN1` [SCH 50911], the CC50 at 24 h (AC50 (uM) modified / 1000) is > 50 µM.

For the setting “AC50 (uM) modified / 1000”, `OC12N=C(c3ccccc3)SC1Cc1cc(Cl)ccc12` (stereo not drawn) [HMR1426] showed a CC50 at 24 h of 56.9 µM.

As for `COc1ccc(C(O)(c2cncnc2)C2CC2)cc1` (stereo not drawn) [Ancymidol], the CC50 at 24 h (AC50 (uM) modified / 1000) is > 90 µM.

On to `CN(C)C=O` [N,N-Dimethylformamide], for which the 50% cytotoxic concentration (CC50) at 24 h (AC50 (uM) modified / 1000) is > 90 µM.

Consider `CC(=O)NC1(c2cccc(F)c2)CCN(CC[C@@]2(c3ccc(Cl)c(Cl)c3)CN(c3ccccc3)C(=O)CO2)CC1` [SAR102779], for which the CC50 at 24 h (AC50 (uM) modified / 1000) came out at 6.31 µM.

With `COc1ccc2cc(CCC(C)=O)ccc2c1` [Nabumetone], the CC50 at 24 h (AC50 (uM) modified / 1000) was > 20 µM.

As for `COP(=S)(OC)Oc1ccc(S(N)(=O)=O)cc1` [Cythioate], the CC50 at 24 h (AC50 (uM) modified / 1000, Tox21_110001=Tox21_113080, viability, 1 nM T3 present, 24 h) is > 50 µM.

The molecule `COc1cc(C[C@@H](C)N)c(OC)cc1Br` [R-(-)-2,5-Dimethoxy-4-bromoamphetamine hydrochloride] displayed a CC50 at 24 h (AC50 (uM) modified / 1000) of 56.1 µM.

Consider `C=CCNC1=C2C[C@@H](C)C[C@H](OC)[C@H](O)[C@@H](C)/C=C(\C)[C@H](OC(N)=O)[C@@H](OC)/C=C\C=C(/C)C(=O)NC(=CC1=O)C2=O` [Tanespimycin], for which the CC50 at 24 h (AC50 (uM) modified / 1000) is > 50 µM.

In the case of `O=C(O)c1cc2cc(Cc3cccnc3)ccc2o1` [Furegrelate sodium], the CC50 at 24 h (AC50 (uM) modified / 1000) was > 50 µM.

For `CC(C)C[C@@H](N)C(=O)O` [D-Leucine], the CC50 at 24 h (AC50 (uM) modified / 1000) was > 50 µM.

As for `CCCCCCCCCCCCCCCC(=O)OCC` [Ethyl hexadecanoate], under “AC50 (uM) modified / 1000”, the CC50 at 24 h was > 90 µM.

Regarding `C[C@H](N)C(=O)N[C@@H](C)P(=O)(O)O` [Alafosfalin], the CC50 at 24 h (AC50 (uM) modified / 1000) is > 50 µM.

For `SCCc1cnccn1` [Pyrazineethanethiol], the CC50 at 24 h (AC50 (uM) modified / 1000) was > 90 µM.

In the case of `CCCCCC[N+](=O)[O-]` [1-Nitrohexane], the CC50 at 24 h (AC50 (uM) modified / 1000) is > 90 µM.

On to `c1nc[nH]n1` [1,2,4-Triazole, sodium salt], for which the CC50 at 24 h (AC50 (uM) modified / 1000) is > 90 µM.

In the case of `COC(=O)[C@]1(C)CCC[C@@]2(C)[C@H]1CC=C1C=C(C(C)C)CC[C@@H]12` [Methyl abietate], the CC50 at 24 h (AC50 (uM) modified / 1000) was 42.6 µM.

`CCC=CCCOC(=O)c1ccccc1O` (stereo in doubt) [(3Z)-Hex-3-en-1-yl salicylate]: the CC50 at 24 h (AC50 (uM) modified / 1000) is > 90 µM.

On to `C[C@]12N[C@H](Cc3ccccc31)c1ccccc12` [Dizocilpine maleate], for which the CC50 at 24 h (AC50 (uM) modified / 1000, Tox21_110001=Tox21_111251, viability, 1 nM T3 present, 24 h) is > 50 µM.

Consider `CCOP(=O)(O)C(N)=O` [Fosamine ammonium], for which the CC50 at 24 h (AC50 (uM) modified / 1000, Tox21_110001=Tox21_301917, viability, 1 nM T3 present, 24 h) is > 90 µM.

Regarding `C[C@@H]1CCC[C@H](C)N1` [cis-Nanophine hydrochloride], under “AC50 (uM) modified / 1000”, the CC50 at 24 h was > 20 µM.

Take `NC(=O)NC(=O)Cc1ccccc1` [Phenacemide]: where the note is “AC50 (uM) modified / 1000”, the CC50 at 24 h was > 50 µM.

For the molecule `COC(=O)[C@H]1[C@@H](OC(=O)c2ccccc2)C[C@@H]2CC[C@H]1N2C` [(-)-Cocaine hydrochloride], the CC50 at 24 h (AC50 (uM) modified / 1000) is > 90 µM.

For the molecule `c1ccc(NNc2ccccc2)cc1` [1,2-Diphenylhydrazine], the CC50 at 24 h by setting is: (AC50 (uM) modified / 1000, Tox21_110001=Tox21_202323, viability, 1 nM T3 present, 24 h) > 90 µM; (AC50 (uM) modified / 1000, Tox21_110001=Tox21_300492, viability, 1 nM T3 present, 24 h) 67.9 µM.

For `Nc1ncnc(Nc2ccccc2)n1` [Amanozine], the CC50 at 24 h (AC50 (uM) modified / 1000) was > 50 µM.

Consider `O=C(O)c1ccc2[nH]cc(CCCCN3CC=C(c4ccccc4)CC3)c2c1` [Carmoxirole], for which the CC50 at 24 h (AC50 (uM) modified / 1000) is > 50 µM.

As to `Cc1cc(Cc2ccc(N)c(C)c2)ccc1N` [4,4'-Diamino-3,3'-dimethyldiphenylmethane], the cytotoxic concentration (CC50) at 24 h (AC50 (uM) modified / 1000) was > 90 µM.

Turning to `CC(C)c1ccccc1O` [2-Isopropylphenol], the CC50 at 24 h (AC50 (uM) modified / 1000) was > 90 µM.

With `C=C(C)[C@@H]1CCC2=CCC[C@@H](C)[C@]2(C)C1` [Valencene], the CC50 at 24 h (AC50 (uM) modified / 1000) is > 90 µM.

Take `OCCCl` [2-Chloroethanol]: the CC50 at 24 h (AC50 (uM) modified / 1000, Tox21_110001=Tox21_300043, viability, 1 nM T3 present, 24 h) was > 90 µM.

As to `CC(C)Nc1ccc(NC(C)C)c2c1C(=O)c1ccccc1C2=O` [1,4-Bis(N-isopropylamino)anthraquinone], the CC50 at 24 h (AC50 (uM) modified / 1000) was > 50 µM.

For the molecule `ClCCCl` [1,2-Dichloroethane], under “AC50 (uM) modified / 1000”, the half-maximal cytotoxic concentration (CC50) at 24 h is > 90 µM.

Regarding `O=C(CN1CCN(Cc2ccc3c(c2)OCO3)CC1)N1c2ccccc2Sc2ccccc21` [Fenoverine], the CC50 at 24 h (AC50 (uM) modified / 1000) came out at 23.4 µM.

As to `Cc1c(N=C=O)cccc1N=C=O` [Toluene-2,6-diisocyanate], the CC50 at 24 h (AC50 (uM) modified / 1000) was > 90 µM.

For `OCCCCCCO` [1,6-Hexanediol], under “AC50 (uM) modified / 1000”, the CC50 at 24 h was > 90 µM.

As to `COc1ccc(NC(C)=O)cc1N` [N-(3-Amino-4-methoxyphenyl)acetamide], where the note is “AC50 (uM) modified / 1000”, the CC50 at 24 h was > 90 µM.

As to `N#Cc1ccc(CC(=O)c2cccc(C(F)(F)F)c2)cc1` [4-{2-Oxo-2-[3-(trifluoromethyl)phenyl]ethyl}benzonitrile], the CC50 at 24 h (AC50 (uM) modified / 1000) is > 90 µM.

For `CC(C)(C)C(O)/C=C/c1ccc2c(c1)OCO2` (stereo not drawn) [Stiripentol], the CC50 at 24 h (AC50 (uM) modified / 1000) was > 50 µM.

For `Oc1c(Br)cc(Br)cc1Br` [2,4,6-Tribromophenol], the CC50 at 24 h is, setting by setting: (AC50 (uM) modified / 1000, Tox21_110001=Tox21_111098, viability, 1 nM T3 present, 24 h) > 50 µM; (AC50 (uM) modified / 1000, Tox21_110001=Tox21_201273, viability, 1 nM T3 present, 24 h) > 90 µM.

Take `CC(C(O)c1ccccc1)N(C)CCOC(c1ccccc1)c1ccccc1` (stereo not drawn) [Difeterol]: the CC50 at 24 h (AC50 (uM) modified / 1000) was found to be 15.1 µM.

On to `CCCCCCCCCCC=O` [Undecanal], for which the CC50 at 24 h (AC50 (uM) modified / 1000) is > 90 µM.

As to `COC(C)(C)CCC[C@H](C)C/C=C/C(C)=C/C(=O)OC(C)C` [S-Methoprene], the CC50 at 24 h (AC50 (uM) modified / 1000) was 70.9 µM.

`CC/C=C(\C(=O)N[C@@H]1C(=O)N2C(C(=O)OCOC(=O)C(C)(C)C)=C(COC(N)=O)CS[C@H]12)c1csc(N)n1` [Cefcapene pivoxil hydrochloride]: under “AC50 (uM) modified / 1000”, the CC50 at 24 h was > 50 µM.

`c1ccc(CCCc2ccncc2)cc1` [4-(3-Phenylpropyl)pyridine]: the CC50 at 24 h (AC50 (uM) modified / 1000) is > 90 µM.

`COC(=O)c1cc(C(=O)OC)cc(S(=O)(=O)O)c1` [Sodium 3,5-bis(methoxycarbonyl)benzenesulfonate]: the CC50 at 24 h (AC50 (uM) modified / 1000) was > 90 µM.

Consider `C[C@@H]1C/C=C/C=C/C=C/C=C/[C@H](O[C@@H]2O[C@H](C)[C@@H](O)[C@H](N)[C@@H]2O)C[C@@H]2O[C@](O)(C[C@@H](O)C[C@H]3O[C@@H]3/C=C/C(=O)O1)C[C@H](O)[C@H]2C(=O)O` [Natamycin], for which, where the note is “AC50 (uM) modified / 1000”, the CC50 at 24 h was > 50 µM.

Take `O=P(OCC(Br)CBr)(OCC(Br)CBr)OCC(Br)CBr` (stereo not drawn) [Tris(2,3-dibromopropyl) phosphate]: the CC50 at 24 h was 30.4 µM (AC50 (uM) modified / 1000, Tox21_110001=Tox21_201798, viability, 1 nM T3 present, 24 h) and 54.5 µM (AC50 (uM) modified / 1000, Tox21_110001=Tox21_302967, viability, 1 nM T3 present, 24 h).

For `COC(=O)c1ccccc1C` [Methyl 2-methylbenzoate], the CC50 at 24 h (AC50 (uM) modified / 1000) is > 90 µM.

On to `CC(C)(C#N)N=NC(C)(C)C#N` [Azobisisobutyronitrile], for which, where the note is “AC50 (uM) modified / 1000”, the CC50 at 24 h was > 90 µM.
